Assay results taken from ChEMBL document CHEMBL2046271, “Terpenes from Copaifera demonstrated in vitro antiparasitic and synergic activity” (J Med Chem, 2012).
Calls of active or inactive are those of the source. The calls are words filed in the database; no cut-off is given here.

How the values were obtained:
[1] = Toxicity in human RBC assessed as hemolysis after 3 hrs; format: cell-based, Erythrocyte; details: red blood cells
[2] = Cytotoxicity against monkey LLC-MK2 cells after 96 hrs by sulforhodamine B assay; format: cell-based, Macaca mulatta; details: rhesus monkey
Trypanosoma cruzi [3] = test: Antitrypanosomal activity against Trypanosoma cruzi Y infected in monkey LLC-MK2 cells assessed as reduction in number of amastigotes after 96 hrs by Geimsa staining method; format: functional; parameters: concentration or dose not given beside the values
Trypanosoma cruzi [4] = test: Antitrypanosomal activity against Trypanosoma cruzi Y epimastigotes assessed as lipid peroxidation at 400 uM after 6 hrs; format: functional
Trypanosoma cruzi [5] = test: Antitrypanosomal activity against Trypanosoma cruzi Y epimastigotes assessed as gated cells in lower right quadrant at 400 uM after 3 hrs by propidium iodide staining-based flow cytometric analysis (reference value: 5.41%); format: functional
Trypanosoma cruzi [6] = test: Antitrypanosomal activity against Trypanosoma cruzi Y epimastigotes after 96 hrs by neubauer chamber; format: functional, organism-based
Trypanosoma cruzi [7] = test: Antitrypanosomal activity against Trypanosoma cruzi Y epimastigotes assessed as gated cells in upper left quadrant at 400 uM after 3 hrs by rhodamine 123 staining-based flow cytometric analysis (reference value: 1.54%); format: functional
[8] = Selectivity ratio of CC50 for monkey LLC-MK2 cells to IC50 for Trypanosoma cruzi Y amastigotes; format: ADME, cell-based; details: LLC-MK2 cells versus Trypanosoma cruzi Y amastigotes, read-out: Ratio CC50/IC50
Trypanosoma cruzi [9] = test: Antitrypanosomal activity against Trypanosoma cruzi Y epimastigotes assessed as organelle disorganization at compound IC50 concentration after 96 hrs by transmission electron microscopic analysis; format: functional, organism-based
Trypanosoma cruzi [10] = test: Antitrypanosomal activity against Trypanosoma cruzi Y epimastigotes assessed as gated cells in lower left quadrant at 400 uM after 3 hrs by rhodamine 123 staining-based flow cytometric analysis (reference value: 2.40%); format: functional
Trypanosoma cruzi [11] = test: Antitrypanosomal activity against Trypanosoma cruzi Y epimastigotes assessed as membranous vacuole formation in all body parts at compound IC50 concentration after 96 hrs by transmission electron microscopic analysis; format: functional, organism-based
Trypanosoma cruzi [12] = test: Antitrypanosomal activity against Trypanosoma cruzi Y epimastigotes assessed as gated cells in upper left quadrant at 400 uM after 3 hrs by propidium iodide staining-based flow cytometric analysis (reference value: 3.76%); format: functional
Trypanosoma cruzi [13] = test: Antitrypanosomal activity against Trypanosoma cruzi Y epimastigotes assessed as gated cells in lower right quadrant at 400 uM after 3 hrs by rhodamine 123 staining-based flow cytometric analysis (reference value: 1.12%); format: functional
Trypanosoma cruzi [14] = test: Antitrypanosomal activity against Trypanosoma cruzi Y epimastigotes assessed as gated cells in lower left quadrant at 400 uM after 3 hrs by propidium iodide staining-based flow cytometric analysis (reference value: 89.35%); format: functional
Trypanosoma cruzi [15] = test: Antitrypanosomal activity against Trypanosoma cruzi Y amastigotes infected in monkey LLC-MK2 cells after 96 hrs by Geimsa staining method; format: functional, organism-based; details: LLC-MK2, 96 h
Trypanosoma cruzi [16] = test: Antitrypanosomal activity against Trypanosoma cruzi Y epimastigotes assessed as gated cells in upper right quadrant at 400 uM after 3 hrs by propidium iodide staining-based flow cytometric analysis (reference value: 1.40%); format: functional
Trypanosoma cruzi [17] = test: Antitrypanosomal activity against Trypanosoma cruzi Y trymastigotes infected in monkey LLC-MK2 cells after 24 hrs by Brenner counter method; format: functional, organism-based; details: LLC-MK2, 24 h
Trypanosoma cruzi [18] = test: Antitrypanosomal activity against Trypanosoma cruzi Y epimastigotes assessed as gated cells in upper right quadrant at 400 uM after 3 hrs by rhodamine 123 staining-based flow cytometric analysis (reference value: 94.94%); format: functional
Trypanosoma cruzi [19] = test: Antitrypanosomal activity against Trypanosoma cruzi Y trymastigotes infected in monkey LLC-MK2 cells after 24 hrs by Brenner counter method in presence of beta-hydroxycopalic; format: functional
Trypanosoma cruzi [20] = test: Antitrypanosomal activity against Trypanosoma cruzi Y trymastigotes infected in monkey LLC-MK2 cells after 24 hrs by Brenner counter method in presence of copalic; format: functional
Trypanosoma cruzi [21] = test: Antitrypanosomal activity against Trypanosoma cruzi Y epimastigotes assessed as kinetoplast disorganisation at compound IC50 concentration after 96 hrs by transmission electron microscopic analysis; format: functional, organism-based
Trypanosoma cruzi [22] = test: Antitrypanosomal activity against Trypanosoma cruzi Y epimastigotes assessed as formation of concentric membranous vacuoles at compound IC50 concentration after 96 hrs by transmission electron microscopic analysis; format: functional, organism-based
Trypanosoma cruzi [23] = test: Antitrypanosomal activity against Trypanosoma cruzi Y epimastigotes assessed as pronounced swelling of mitochondria at compound IC50 concentration after 96 hrs by transmission electron microscopic analysis; format: functional, organism-based
[24] = Toxicity in human RBC assessed as hemolysis at 1552 uM after 3 hrs; format: cell-based, Erythrocyte; details: red blood cells, read-out: Activity

Structure (SMILES) | HC50 at 3 h [1] [µM] | CC50 at 96 h [2] [µM] | Activity (Trypanosoma cruzi [3]) [%] | Activity (Trypanosoma cruzi [4]) | Activity (Trypanosoma cruzi [5]) [%] | IC50 (Trypanosoma cruzi [6]) [µM] | Activity (Trypanosoma cruzi [7]) [%] | selectivity ratio [8] | Activity (Trypanosoma cruzi [10]) [%] | Activity (Trypanosoma cruzi [12]) [%] | Activity (Trypanosoma cruzi [13]) [%] | Activity (Trypanosoma cruzi [14]) [%] | IC50 (Trypanosoma cruzi [15]) [µM] | Activity (Trypanosoma cruzi [16]) [%] | EC50 (Trypanosoma cruzi [17]) [µM] | Activity (Trypanosoma cruzi [18]) [%] | also measured
C=C1CC[C@@H]2C(C)(C)[C@@H](O)CC[C@@]2(C)[C@@H]1CC/C(C)=C/C(=O)O | 125 | 31.2 | 40 | inactive | 0.15 | 41.2 | 24.06 | 17.3 | 2.27 | 73 | 0.01 | 2.56 | 1.8 | 24.29 | 453 | 73.66 | Activity (Trypanosoma cruzi [9]): Active; Activity (Trypanosoma cruzi [11]): Active
C=C1CC[C@@H]2[C@](C)(CCC[C@]2(C)C(=O)O)[C@H]1CC/C(C)=C/C(=O)O [AGATHIC ACID] | 1050 | 56.8 | 38 | inactive | 2.51 | 86.8 | 13.37 | 3.8 | 2.07 | 50.32 | 0.45 | 14.2 | 14.9 | 32.97 | 823 | 84.11 | –
C[C@@H]1[C@H](O)[C@@H](C)/C=C/C=C/C=C/C=C/C=C/C=C/C=C/[C@H](O[C@@H]2O[C@H](C)[C@@H](O)[C@H](N)[C@@H]2O)C[C@@H]2O[C@](O)(C[C@@H](O)C[C@@H](O)[C@H](O)CC[C@@H](O)C[C@@H](O)CC(=O)O[C@H]1C)C[C@H](O)[C@H]2C(=O)O [AMPHOTERICIN B] | 50.8 | – | – | – | – | – | – | – | – | – | – | – | – | – | – | – | –
O=C(Cn1ccnc1[N+](=O)[O-])NCc1ccccc1 [BENZNIDAZOLE] | > 1920 | 615 | – | – | – | 6.5 | – | 32 | – | – | – | – | 19.2 | – | 34.5 | – | fractional inhibitory concentration index (FICI) (Trypanosoma cruzi [19]): 1.01; fractional inhibitory concentration index (FICI) (Trypanosoma cruzi [20]): 0.95
C=C1CC/C=C(\C)CC[C@@H]2[C@@H]1CC2(C)C [BETA-CARYOPHYLLENE] | > 2450 | 1720 | 25 | 30% | 0.26 | 78.4 | 3.17 | 26.9 | 52.01 | 78.81 | 15.47 | 9.53 | 63.7 | 11.4 | 1590 | 29.35 | Activity (Trypanosoma cruzi [21]): Active; fractional inhibitory concentration index (FICI) (Trypanosoma cruzi [19]): 0.86; fractional inhibitory concentration index (FICI) (Trypanosoma cruzi [20]): 0.12; Activity (Trypanosoma cruzi [22]): Active
C=C1CC[C@@H]2C(C)(C)CCC[C@@]2(C)[C@@H]1CC/C(C)=C/C(=O)O [COPALIC ACID] | 65.7 | 39.4 | 48 | 30% | 0.71 | 42.7 | 24.47 | 30.3 | 2.86 | 43.58 | 0.1 | 5.17 | 1.3 | 50.54 | 444 | 72.57 | Activity (Trypanosoma cruzi [23]): Active
C=C1C[C@@]23CC[C@H]4[C@@](C)(CCC[C@@]4(C)C(=O)O)[C@@H]2CC[C@@H]1C3 [KAURENOIC ACID] | 464 | 76.1 | 38 | inactive | 13.27 | 167 | 2.55 | 4.6 | 4.85 | 45.55 | 0.96 | 22.65 | 16.5 | 18.53 | 596 | 91.64 | –
C=C1CC[C@@H]2C(C)(C)CCC[C@@]2(C)[C@@H]1CC/C(C)=C/C(=O)OC [METHYL COPALATE] | 1600 | 69.1 | 38 | inactive | 9.22 | 83.3 | 0.64 | 27.6 | 0.66 | 2.62 | 0.21 | 85.91 | 2.5 | 2.25 | 377 | 98.49 | –
C=C1CC[C@@H]2[C@](C)(CCC[C@@]2(C)C(=O)O)[C@H]1CC[C@H](C)CC(=O)O [PINIFOLIC ACID] | > 1550 | 252 | 25 | inactive | 3.85 | 854 | 0.81 | 13.5 | 1.02 | 3.78 | 0.21 | 91.66 | 18.6 | 0.71 | 1630 | 97.96 | hemolysis at 3 h, 1552 µM [24]: 8%
C=C1CC[C@@H]2[C@](C)(CCC[C@@]2(C)C(=O)O)[C@H]1CCc1ccoc1 [POLYALTIC ACID] | > 1580 | 60.1 | 38 | inactive | 25.8 | 168 | 1.28 | 2.1 | 1.85 | 16.7 | 0.91 | 26.71 | 28.4 | 29.09 | 965 | 95.96 | –
